Patent publication US9750805B2, “Calcium flux agonists and methods therefor” (Nant Holdings IP, LLC, priority 2012, dated 2017)

Tests used:
THP-1 cells = assay: Human IL-8 activity, dose response of calcium flux agonists without added TLR or NOD ligand; type: cell-based; settings: 24 hours, increasing concentrations, no added TLR or NOD ligand, FIGS. 1A-1C
Text: The inventors performed several studies to identify the effect of calcium flux agonists on various components of an immune response, and particularly on the effect of calcium flux agonists on IL-8 production and activation of NF-κB signaling. […] The dose response is observed over relatively large windows for ionophores (e.g., A23187 and ionomycin) and over at least two orders of magnitude for SERCA inhibitors (e.g., thapsigargin).
More specifically, the dose response of ionophores on NF-κB and IL-8 is shown in FIGS. 1A-1B using a monocyte-derived cell line to treatment and A23187 and ionomycin in the absence of externally added TLR or NOD ligands. […] FIG. 1C depicts the dose response to thapsigargin on NF-κB and IL-8.
Human IL-8 activity: A titration of thapsigargin (A.G. Scientific, San Diego Calif.), ionomycin (Sigma-Aldrich, St. Louis Mo.), and the calcium ionophore A23187 (Sigma-Aldrich) was added to a 96-well plate (Thermo Matrix, Waltham Mass.) seeded with 150,000 THP-1 cells (ATCC TIB-202) grown in RPMI 1640 (Cellgro, Herndon VA) supplemented with 10% FBS (Thermo HyClone, Waltham Mass.) and 1% penicillin-streptomycin-fungizone (Thermo HyClone). 24 hours after addition, 25 uL of supernatant was removed and assayed for human IL-8 using the Meso Scale Discovery Human IL-8 Tissue Culture Kit (MSD, Rockville, Md.) per manufacturer's protocol. The results were analyzed using the Meso Scale Discovery SECTOR Imager 2400 and normalized to a titration of human IL-8 supplied by the MSD Kit.

[1] = tested on: κB-LUC THP-1 reporter cells; assay: κB-LUC THP-1 reporter response to S. aureus conditioned/spent media (FIGS. 5B-5E); type: cell-based, human; settings: 1:100 conditioned media, 18 hours; 20 nM thapsigargin, 316 nM A23187, 1 μM ionomycin vs DMSO vehicle
Text: Briefly, a culture of logarithmically dividing S. aureus was washed three times with RPMI 1640 (Cellgro). Concurrently, THP-1 κB-LUC THP-1's (THP-1 cells containing the stable integration of a NF-κB luciferase reporter gene) cultured in RPMI 1640 (Cellgro) supplemented with 10% FBS (Thermo HyClone, Waltham Mass.) and 1% penicillin-streptomycin-fungizone (Thermo HyClone) were washed three times with RPMI 1640 (Cellgro) and transferred to the bottom compartment of a 24-well 0.4 μm cutoff transwell plate (Corning) at a concentration of 1.2 million/mL. Dilutions of the washed S. aureus culture were then added to the top chamber of the transwell system at the indicated initial multiplicities of infection (MOI). The cells were incubated for 18 hours at 37° C. at which time aliquots of 60,000 cells were transferred to wells in a 384-well white bottom plate (Thermo). To evaluate luciferase gene expression, Bright-Glo Luciferase Assay Reagent (Promega) was added to each well and the plates were analyzed for luciferase activity using the Perkin Elmer TopCount NXT system (Perkin Elmer).
To determine whether the recognition of S. aureus-produced products could be further augmented through modulation of calcium flux, κB-LUC THP-1 reporter cells were incubated in the presence of a 1:100 dilution (V/V) of sterile filtered S. aureus conditioned (i.e. spent) or unused sterile media and treated with a suboptimal dose (20 nM) of thapsigargin or dimethyl sulfoxide (DMSO) vehicle control as described above. Briefly, conditioned media was produced by culturing S. aureus in RPMI with 10% fetal bovine serum overnight in a shaking incubator at 37° C. following which the bacteria were pelleted by centrifugation and the supernatants filter-sterilized using a 0.2 μm filter (VWR Radnor PA). The κB-LUC THP-1 cells were incubated in the presence of the conditioned/spent media for 18 hours prior to luciferase assay as described above.

S. aureus [2] = assay: Mouse model of S. aureus skin wound infection, pre-infection topical treatment; type: in vivo, C57BL/6 mice; settings: topical 2 mM formulation one day before infection; for bacterial burden at the infection site: day 7, vs vehicle controls; for wound size: days 3, 5 and 7 of infection, vs control treated animals, p<0.01
Protocol: To determine if calcium flux agonists such as the ionophores A23187 and ionomycin or the SERCA pump inhibitor thapsigargin can be used as a pre-treatment of bacterial infection, the inventors treated the shaved dorsal skin of 6-8 week old male C57B1/6 mice with vehicle alone, or formulations containing 2 mM A23187, ionomycin, or thapsigargin. One day later, the inventors superficially infected the dorsal skin of groups of 5 mice with 2×10^6 CFU of S. aureus and evaluated bacterial burden and wound size over the next week.
Topical delivery: A23187 and ionomycin and thapsigargin were reconstituted in dehydrated ethanol (Spectrum Chemicals, Gardena Calif.) to appropriate concentrations for subsequent formulations. In the pre-infection in vivo study, topical formulations consisted of 75% dehydrated ethanol (Spectrum Chemicals), 22% cyclohexane (Sigma-Aldrich), and 3% dimethyl sulfoxide (Sigma-Aldrich). Each topical formulation was delivered by submersing a circular piece of Whatman paper (Whatman, a division of GE Healthcare) with a 1.0 centimeter diameter and applying said circle to the skin of each recipient for 5 minutes.
Preparation of S. aureus for skin inoculation: Briefly, mid-logarithmic phase S. aureus bacteria was washed twice and resuspended in sterile saline (0.9%) at the noted concentrations. Mice: Male mice, 6-8 weeks old, on a C57BL/6 genetic background were used in all experiments (Jackson Laboratories, Bar Harbor, Me.).
Mouse model of S. aureus skin wound infection: To prepare animals for wound infection, the skin of the posterior upper back and neck of mice was shaved using #40 clippers. Next, three parallel 8 mm long full-thickness scalpel cuts (no. 11 blade) were made into the dermis. Resulting wounds were inoculated with 10 μl of S. aureus (2×10^8 CFUs per mL) with a micropipettor. Total lesion size (cm2) measurements were quantified by determining total pixel count from photographed animals using a millimeter ruler as a reference.
Quantification of in vivo S. aureus bacterial burden: To determine in vivo bacterial burden, infected mice were sacrificed on day 7 following infection and lesions were harvested surgically. Harvested tissues were homogenized and bacterial count was determined following plating on appropriate solid growth media.

S. aureus [3] = assay: Antibiotic sensitivity of S. aureus (OD600 / plating, FIGS. 9A-9C, 10); type: cell-based; settings: log phase culture, OD600 over time, control kanamycin, 9B
Protocol: To determine the antibiotic sensitivity of S. aureus, cultures were grown overnight in tryptic soy broth (Cellgro). The resulting cultures were used to inoculate new cultures to ensure log phase growth prior to the start of the experiment. Once the bacteria had reached log phase the bacteria was diluted to the appropriate OD600˜0.05 and transferred to a 24-well plate. Compounds of interest were added and plates were incubated in a shaking incubator at 37° C. Aliquots were removed at various time points and their respective OD600 was measured using a BioTek Synergy2 microplate reader (BioTek, Winooski, Vt.). For wells whose turbidity was affected by the addition of the compounds of interest, aliquots were removed and plated on tryptic soy agar (Cellgro) and incubated overnight in a 37° C. incubated and counted the following day. Thus, it should be appreciated that the calcium flux agonists are effective in antimicrobial treatments via an indirect effect, most likely due to the enhanced production of IL-8 and increased NF-κB-driven transcription.

Compound	IL-8 production (THP-1 cells)	NF-κB reporter response to S. aureus conditioned/spent media [1]	bacterial burden at the infection site (S. aureus [2])	wound size (S. aureus [2])	direct antibiotic effect against S. aureus (S. aureus [3])
CNc1ccc2oc(C[C@H]3O[C@@]4(CC[C@H]3C)O[C@H]([C@H](C)C(=O)c3ccc[nH]3)[C@H](C)C[C@H]4C)nc2c1C(=O)O [A23187, calcimycin]	significant increases	significantly enhanced	significantly fewer bacteria	significantly smaller wound sizes	some direct antibiotic effect
C[C@H](CCC(=O)O)C[C@H](C)C[C@H](C)C(=O)/C=C(\O)[C@H](C)C[C@H](C)C/C=C/[C@@H](C)[C@@H](O)[C@@H](C)[C@@H](O)C[C@@H]1CC[C@@](C)([C@H]2CC[C@@](C)([C@@H](C)O)O2)O1 [ionomycin]	significant increases	significantly enhanced	significantly fewer bacteria	significantly smaller wound sizes	some direct antibiotic effect
C/C=C(/C)C(=O)O[C@H]1C(C)=C2[C@H]([C@@H]1OC(=O)CCCCCCC)[C@@](C)(OC(C)=O)C[C@H](OC(=O)CCC)[C@@]1(O)[C@H]2OC(=O)[C@@]1(C)O [thapsigargin]	significant increases	significantly enhanced	significantly fewer bacteria	significantly smaller wound sizes	lack of direct antibiotic effect
